Structures are written as SMILES. pIC50: −log10 of the molar value. Where only a bound is given, the exact number is not on record here.

The assay addresses T1, Caspase-1 (Homo sapiens, UniProt P29466).
T1 sequence (P29466 whole entry): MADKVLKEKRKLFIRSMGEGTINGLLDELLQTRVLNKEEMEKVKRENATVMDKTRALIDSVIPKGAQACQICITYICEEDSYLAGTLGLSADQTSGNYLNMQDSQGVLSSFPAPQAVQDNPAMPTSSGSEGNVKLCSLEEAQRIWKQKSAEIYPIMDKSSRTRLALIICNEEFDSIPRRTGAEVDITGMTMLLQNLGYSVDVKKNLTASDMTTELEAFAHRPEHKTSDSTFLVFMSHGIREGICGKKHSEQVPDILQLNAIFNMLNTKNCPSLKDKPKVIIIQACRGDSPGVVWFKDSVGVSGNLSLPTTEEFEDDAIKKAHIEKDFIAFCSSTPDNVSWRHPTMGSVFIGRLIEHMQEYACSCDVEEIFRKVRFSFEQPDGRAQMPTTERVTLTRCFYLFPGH
The experiment in a line: Yeast CASP1/ASC signal blockade, IC50 values, counterassay for NLRP1 inhibitor project (AID 488863).
One may read the pIC50 as the IC50 on a negative log10 scale, so that one unit is a factor of ten. Low values mean a high IC50, high ones a low IC50. Take `Cc1ccc(-n2c(O)cc(Sc3ccccc3C(=O)O)c2O)cc1`: the pIC50 was 4.69. `COc1ccccc1-n1c(O)c2c(c1O)CC(c1ccccc1)CC2` (stereo not drawn) had a pIC50 of less than 4.00. For `Oc1cc(Sc2nnnn2-c2ccccc2)c(O)n1-c1cccc(Cl)c1` the value was 5.29.

The values are drawn from BindingDB's records for doi:10.7270/Q2TD9VTQ (Burnham Center For Chemical Genomics, 2010).
